These results are taken from patent US10792410B2, “Bioartificial liver” (Mayo Foundation for Medical Education and Research, priority 2009, dated 2020).

The structures appear in SMILES notation.

In data set [1] the test system is TLR4 + (Wild type) mice. Kind of data set: Toxin-induced liver injury in TLR4 + (wild type) mice. The data set is classed as in vivo. On the procedure: (§1) The role of TLR4 in ALF and SIRS was studied. […] A similar protective effect of TLR4 deficiency was also observed when wild-type and TLR4 mutant mice were treated with acetaminophen (APAP) at 500 mg/kg—a dose which is highly toxic with 100% mortality in wild-type mice (Table 2). Systemic inflammation was confirmed in wild-type mice after both APAP and Dgal/LPS by rising blood levels of TNFα and neutrophil infiltration in their lungs at necropsy. In contrast, lung histology and systemic levels of TNFα remained normal in TLR4 deficient mice. […] TLR4 deficient Kupffer cells may also explain the protective effects observed in TLR4 deficient mice after toxin exposure (FIG. 6c). […] Pretreatment with gadolinium chloride reduced the number of Kupffer cells in the liver by 48% (31±6 to 16±4 cells/HPF, p<0.001), and lowered peak ALT levels from 2458±2347 U/mL to 278±196 U/mL.

In data set [2] the test system is TLR4 − (Deficient) mice. As to the kind of experiment: Toxin-induced liver injury in TLR4 − (deficient) mice. In kind it is in vivo. The following applies: n = 10/group. The method, then:
as §1

Data set [3] relates to TLR4. Kind of data set: TLR4 agonist activity of mouse serum, luciferase reporter in HEK293/Luc(+)/TLR4(+) cells. The following applies: mouse serum 6 hours after APAP 500 mg/kg vs 0 mg/kg sham controls, p<0.001. The data set is classed as cell-based. An excerpt: FIGS. 7(a)-7(c): (a) TLR4 Signaling Complex is found in many cell types. It can also be stably transfected into reporter cells to measure TLR4 agonist activity in vitro; (b) is a schematic representation of HEK293 cells which have been transfected with TLR4 complex and a luciferase reporter gene to measure TLR4 agonist activity in vitro. The HEK293/Luc(+)/TLR4(+) cells, used to measure TLR4 agonist activity in mouse serum in (c) are used to screen dog serum for TLR4 agonist activity; (c) TLR4 agonist activity was elevated in mouse blood after toxic exposure to APAP (500 vs 0 mg/kg). This in vitro assay is based on a luciferase reporter gene linked to NFκβ in HEK293 cells which responds to TLR4 activation. Only trace background activity was detected in HEK293 cells lacking the TLR4 complex, labeled TLR4(−), confirming specificity of the luciferase activity to TLR4.
Further evidence supporting TLR4 as a signaling molecule in the SIRS response to ALF is illustrated in FIG. 7. FIGS. 7a-b show the assay, as well as the TLR4 receptor complex, used in the study.
TLR4 agonist activity are measured by an in vitro assay using HEK293/Luc(+)/TLR4(+) cells (see, e.g., Akira S, Takeda K. Toll-like receptor signaling. Nat Rev Immunol 2004; 4:499-511). […] Luciferase reporter gene signal are quantified by TD-20/20 luminometer (Turner Designs, Sunnyvale, Calif.). […]
(A reporter such as luciferase makes a cellular process visible.)

Setting [4] is: wild type mice, 6 hr, n = 10/group.

In general, mortality refers to the percentage killed. `CC(=O)Nc1ccc(O)cc1` [APAP, acetaminophen]: in data set [1] (wild type mice, 18 hr, APAP 500 mg/kg, n = 10/group), the “ALT, TLR4 +” value worked out at 9054 ± 4793 U/mL. Besides, the mortality in data set [1] (wild-type mice, 500 mg/kg) was found to be 100%. Also, the “ALT, TLR4 −” value in data set [2] (18 hr, APAP 500 mg/kg) turned out to be 4810 ± 4045 U/mL. Also, the “TLR4 agonist activity in serum” value in data set [3] is “high levels of TLR4 agonist activity”.
`N[C@H]1C(O)O[C@H](CO)[C@H](O)[C@@H]1O` (stereo partly drawn) [DGal alone, D-galactosamine]: in data set [1] (setting [4]), the “ALT, TLR4 +” value was 43 ± 9 U/mL and the “TUNEL, TLR4 +” value is given as <1 +cells/HPF. Moreover, in data set [2] (6 hr), the “ALT, TLR4 −” value came to 54 ± 18 U/mL and the “TUNEL, TLR4 −” value is <1 +cells/HPF.
Turning to `[Cl][Gd]([Cl])[Cl]` [gadolinium chloride], the “number of Kupffer cells in the liver” value in data set [1] (after pretreatment, 31±6 without) is 16±4 cells/HPF. Also, the “reduction of the number of Kupffer cells in the liver” value in data set [1] (pretreatment of wild-type mice, p<0.001) was 48%. Also, the “ALT, TLR4 +” value in data set [1] (setting [4]) is 278±196 U/mL.
